Source: US20230263752A1, “VETERINARY COMPOSITIONS FOR THE TREATMENT AND/OR PREVENTION OF PROTOZOAN DISEASES AND METHODS OF PREPARATION THEREOF” (ADIFEED SP. Z O. O., priority 2020, published 2023)
Several values for one entry are separate records, joined by “and”; a condition that tells them apart may be missing. Equal values may be shown once.

Experiments:
[1] = system: Gregarina blattarum; experiment: in vitro protozoicidal test on gregarines isolated from cockroaches, in Ringer's solution; format: cell-based; details: for LD100: 100% mortality within 3 minutes
From the text: For in vitro tests of antiprotozoal activity of the composition five reference organisms representing taxonomic groups to which pathogenic protozoa belong were selected, i.e: • Amoeba proteus—Chaos diffluens—a protozoan of the order Euamoebida, belonging to fifth supergroup of the Amoebozoa, living in waters. • Paramecium caudatum—a slipper animalcule representing the Ciliata orachs, living in waters. • Gregarina blattarum—gregarine isolated from cockroaches, representing the phylum Apicomplexa, living in the digestive tracts or body cavities of invertebrates. • Euglena gracilis—a protozoan living in water, representing the flagellates—Mastigophora, family Euglenaceae. • Trichomonas hominis—a protozoan living in the human colon, representing the Trichomonadidae.
The gregarines were isolated from the cockroaches and, after being placed on a watch slide, were treated with the products at different concentrations in Ringer's solution. Each sample contained ten individuals.
The compositions, negative controls, and positive controls were dissolved in an aqueous solution of polysorbate 80 (0.05%) before application to a watch slide.
After this time, the reaction product was filtered through filter paper. […] Compositions I and II were then analysed for their antiprotozoal properties. […]
The tested preparations were dissolved in an aqueous solution of polysorbate 80 (0.05%) before being applied to a watch glass. […] Observation under a fluorescence microscope with phase contrast was carried out.

[2] = system: Amoeba proteus; experiment: in vitro protozoicidal test on watch glass, LD50/LD100; format: cell-based
[3] = system: Trichomonas hominis; experiment: as above; format: cell-based
[4] = system: Trypanosoma cruzi; details: read-out: inhibitory effect on 50% of the population (IC50); cited from earlier work
[5] = system: Trypanosoma cruzi and Leishmania chagasi; details: cited from earlier work
[6] = system: Trypanosoma cruzi and different Leishmania species; details: cited from earlier work
[7] = 100% mortality within 3 minutes

Q: Which results are given for `Cc1ncc([N+](=O)[O-])n1CCO` [M, metronidazole]?
A: LD50 ([1]; 50% mortality within 3 minutes): 0.13% and 0.3%; LD100 [1]: 0.3%; LD50 ([2]; 50% mortality within 3 minutes): 0.3%; LD100 [2, 7]: 0.5%; LD50 ([3]; 50% mortality within 3 minutes): 0.05% and 0.08%; LD100 [3, 7]: 0.1% and 0.15%

Q: With `CC1CS(=O)(=O)CCN1/N=C/c1ccc([N+](=O)[O-])o1` (stereo not shown) [Nifurtimox] as the molecule, how does the IC50 [4] read?
A: 6 µM

Q: What about the IC50 [5] of the same molecule?
A: 0.3 to 0.4 µg/mL

Q: Which “values obtained (in vitro antiprotozoal activity)” value [6] does the source give for `O=C(Cn1ccnc1[N+](=O)[O-])NCc1ccccc1` [benznidazole] here?
A: 45.02 µg/mL

Q: With “copper carbonate [Copper carbonate solution]” as the molecule, how does the LD100 [1] read?
A: 0.37%
